Values quoted from earlier work as cited in patent US10906892B2, “LFA-1 inhibitor and methods of preparation and polymorph thereof” (NOVARTIS PHARMACEUTICALS CORPORATION, priority 2012, dated 2021).

Columns and labels:
[1] = target: Lymphocyte Function-Associated Antigen-1 (LFA-1) interactions with ICAM (Homo sapiens, UniProt P20701); settings: background statement, no data given
[2] = background statement, no data given

Lymphocyte Function-Associated Antigen-1 (LFA-1) interactions with ICAM, sequence (P20701 26-1170): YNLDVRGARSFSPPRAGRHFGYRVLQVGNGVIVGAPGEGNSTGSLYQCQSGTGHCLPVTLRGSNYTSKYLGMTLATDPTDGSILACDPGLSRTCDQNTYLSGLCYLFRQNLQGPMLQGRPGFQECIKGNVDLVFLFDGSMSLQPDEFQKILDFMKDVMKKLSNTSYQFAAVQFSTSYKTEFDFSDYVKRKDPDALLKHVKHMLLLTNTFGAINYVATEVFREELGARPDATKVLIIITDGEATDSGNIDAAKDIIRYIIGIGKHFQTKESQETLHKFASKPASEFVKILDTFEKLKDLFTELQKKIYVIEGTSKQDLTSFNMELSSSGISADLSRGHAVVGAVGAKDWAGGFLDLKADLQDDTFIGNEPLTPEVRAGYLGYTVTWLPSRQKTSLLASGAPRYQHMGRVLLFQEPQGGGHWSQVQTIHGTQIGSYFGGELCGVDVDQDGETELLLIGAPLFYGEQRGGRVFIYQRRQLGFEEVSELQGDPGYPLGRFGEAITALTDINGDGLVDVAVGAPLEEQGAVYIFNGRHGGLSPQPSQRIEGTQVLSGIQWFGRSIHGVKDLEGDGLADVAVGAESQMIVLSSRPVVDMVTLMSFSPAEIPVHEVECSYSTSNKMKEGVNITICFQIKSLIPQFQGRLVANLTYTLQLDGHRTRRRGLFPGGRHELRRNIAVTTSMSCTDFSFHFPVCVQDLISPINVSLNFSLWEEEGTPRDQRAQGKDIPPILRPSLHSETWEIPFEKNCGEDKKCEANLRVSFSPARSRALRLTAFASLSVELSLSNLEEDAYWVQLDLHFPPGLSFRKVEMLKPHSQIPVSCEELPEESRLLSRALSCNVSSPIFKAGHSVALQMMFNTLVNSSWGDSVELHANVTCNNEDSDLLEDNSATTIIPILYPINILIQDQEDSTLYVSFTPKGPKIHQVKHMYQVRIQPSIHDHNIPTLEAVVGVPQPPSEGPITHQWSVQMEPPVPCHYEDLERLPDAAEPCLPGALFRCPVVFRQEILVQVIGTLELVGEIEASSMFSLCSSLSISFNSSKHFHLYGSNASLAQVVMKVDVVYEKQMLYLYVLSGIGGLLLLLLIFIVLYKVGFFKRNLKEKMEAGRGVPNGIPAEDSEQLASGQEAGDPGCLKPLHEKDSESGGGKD
Lymphocyte Function-Associated Antigen-1 (LFA-1) interactions with ICAM, sequence (P05107 23-769 partner): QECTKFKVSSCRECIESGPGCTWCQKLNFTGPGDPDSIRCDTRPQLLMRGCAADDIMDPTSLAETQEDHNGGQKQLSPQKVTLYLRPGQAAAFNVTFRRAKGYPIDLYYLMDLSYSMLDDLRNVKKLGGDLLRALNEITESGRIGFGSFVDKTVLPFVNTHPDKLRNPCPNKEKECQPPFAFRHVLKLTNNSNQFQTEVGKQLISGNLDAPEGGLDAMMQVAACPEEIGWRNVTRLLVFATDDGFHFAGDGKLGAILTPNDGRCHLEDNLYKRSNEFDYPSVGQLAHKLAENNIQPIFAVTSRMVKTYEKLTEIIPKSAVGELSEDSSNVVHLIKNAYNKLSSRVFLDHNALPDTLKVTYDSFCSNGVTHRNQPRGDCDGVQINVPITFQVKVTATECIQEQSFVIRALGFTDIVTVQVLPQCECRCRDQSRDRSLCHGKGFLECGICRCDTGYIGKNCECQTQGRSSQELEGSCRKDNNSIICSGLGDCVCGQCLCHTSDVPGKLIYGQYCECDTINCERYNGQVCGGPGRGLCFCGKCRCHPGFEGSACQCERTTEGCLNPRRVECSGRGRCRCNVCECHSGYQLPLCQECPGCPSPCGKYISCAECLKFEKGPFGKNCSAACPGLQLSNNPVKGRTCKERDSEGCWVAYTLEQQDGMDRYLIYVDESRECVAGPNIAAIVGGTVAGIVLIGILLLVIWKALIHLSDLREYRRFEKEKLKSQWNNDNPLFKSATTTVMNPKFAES

inhibition of LFA-1 interactions with ICAM [1]: effective inhibitor
systemic clearance [2]: rapid systemic clearance
Compound: CS(=O)(=O)c1cccc(C[C@H](NC(=O)c2c(Cl)cc3c(c2Cl)CCN(C(=O)c2ccc4ccoc4c2)C3)C(=O)O)c1 [Formula I]
